Non-standard residues stand in square brackets, D forms with d. No end group written: not given here.
How the values were obtained:
[1] = system: NBI-5788-reactive or MBP-reactive T cell lines from MS patients; test: Cross-reactivity of T cell lines (TCL) from MS patients, 3H-thymidine proliferation; type: cell-based, human
Description: To evaluate the degree of NBI-5788-specific reactivity induced by NBI-5788 treatment, we determined whether NBI-5788-reactive T cell lines generated from untreated or NBI-5788-treated patients cross-reacted with whole MBP or MBP peptide 83-99. T cell lines were generated from positive cultures in the frequency analysis by an additional cycle of co-culture with antigen. Specificity of positive lines was tested by culturing 2×10^4 T cells/well in triplicate with whole MBP, MBP83-99, NBI-5788 or medium alone in the presence of 10^5 APCs in a final volume of 200 μl/well. Two days later supernatants were pooled from replicate wells and frozen at −80° C. Wells were then pulsed with [^3H]-thymidine (1 μCi/well) for the final 18 hours of culture.

[2] = system: T cell lines LW 80, 88, 90 and 93; test: Specificity and phenotype of APL-reactive T cell lines from patient; type: cell-based, human; settings: 25 μg/ml antigen
Description: Four cell cultures from one patient ([…], 32% frequency) showing a response (> three-fold over background) were expanded into cell lines (LW 80, 88, 90 and 93) by incubation in IL-2 for 11-14 days (1-2 passages). Once sufficient cells had grown up, they were cultured with either medium alone or 25 μg/ml of either whole MBP, MBP (83-99) or APL NBI-5788. After 24 hours, the supernatants were collected and the level of cytokines determined (see FIGS. 22 to 26). The remaining cultures were pulsed with radiolabeled thymidine and the extent of incorporation determined.

[3] = patient MS-1, dose 20 mg, TCL 4

In the case of “MBP(83-99) (83E>a, 84N>K, 89F>L, and 91K>A) ([dA]KPVVHLFANIVTPRTP) [NBI-5788]”, the “whole MBP-reactive TCL from treated patients cross-reacting with NBI-5788” value ([1]; 1 of 35 TCL) is reported as 2.9%, the “NBI-5788-reactive TCL from treated patients cross-reacting with whole MBP” value ([1]; 1 of 43 TCL) is reported as 2.3% and the “NBI-5788-reactive TCL from treated patients cross-reacting with both MBP83-99 and whole MBP” value ([1]; 2 of 43 TCL) is reported as 4.7%. The “whole MBP-reactive TCL from treated patients cross-reacting with MBP83-99 and NBI-5788” value ([1]; 3 of 35 TCL) was 8.6%, the “whole MBP-reactive TCL from treated patients cross-reacting with MBP-83-99” value ([1]; 6 of 35 TCL) was 17.1% and the “NBI-5788-reactive TCL from treated patients cross-reacting with MBP83-99” value ([1]; 12 of 43 TCL) was 27.9%. The “proliferative response of MBP-reactive TCL to antigen” value ([1]; patient MS-1, dose 20 mg, TCL 2) was 6,090 ± 102, the “proliferative response of MBP-reactive TCL to antigen” value [1, 3] was 4,164 ± 123 and the “proliferative response of NBI-5788-reactive TCL to antigen” value [1, 3] was 4,112 ± 349. For the same substance, the “proliferative response of MBP-reactive TCL to antigen” value ([1]; patient MS-1, dose 20 mg, TCL 5) was 3,115 ± 56, the “proliferative response of MBP-reactive TCL to antigen” value ([1]; patient MS-1, dose 20 mg, TCL 10) was 2,794 ± 152 and the “proliferative response of MBP-reactive TCL to antigen” value ([1]; patient MS-1, dose 20 mg, TCL 14) was 15,780 ± 214. The “proliferative response of MBP-reactive TCL to antigen” value ([1]; patient MS-1, dose 20 mg, TCL 26) was 2,559 ± 74, the “proliferative response of NBI-5788-reactive TCL to antigen” value ([1]; patient MS-1, dose 20 mg, TCL 36) was 18,259 ± 2011 and the “proliferative response of MBP-reactive TCL to antigen” value ([1]; patient MS-1, dose 20 mg, TCL 45) was 2,559 ± 637. For the same substance, the “proliferative response of MBP-reactive TCL to antigen” value ([1]; patient MS-2, dose 20 mg, TCL 14) was 2,566 ± 421, the “proliferative response of MBP-reactive TCL to antigen” value ([1]; patient MS-3, Pretreat., TCL 9) was 6,468 ± 586 and the “proliferative response of NBI-5788-reactive TCL to antigen” value ([1]; patient MS-3, dose 20 mg, TCL 2) was 19,315 ± 1,310. The “proliferative response of NBI-5788-reactive TCL to antigen” value ([1]; patient MS-3, dose 20 mg, TCL 4) was 50,630 ± 11,709, the “proliferative response of NBI-5788-reactive TCL to antigen” value ([1]; patient MS-3, dose 20 mg, TCL 18) was 10,308 ± 1,283 and the “proliferative response of NBI-5788-reactive TCL to antigen” value ([1]; patient MS-3, dose 20 mg, TCL 30) was 48,278 ± 1,070. The “proliferative response of MBP-reactive TCL to antigen” value ([1]; patient MS-4, dose 20 mg, TCL 7) was 7,492 ± 716, the “proliferative response of NBI-5788-reactive TCL to antigen” value ([1]; patient MS-4, dose 20 mg, TCL 18) was 26,017 ± 802 and the “proliferative response of NBI-5788-reactive TCL to antigen” value ([1]; patient MS-5, dose 20 mg, TCL 15) was 32,597 ± 1,856. The “proliferative response of NBI-5788-reactive TCL to antigen” value ([1]; patient MS-5, dose 20 mg, TCL 39) was 24,326 ± 3,724, the “proliferative response of NBI-5788-reactive TCL to antigen” value ([1]; patient MS-5, dose 20 mg, TCL 43) was 16,726 ± 1,121 and the “proliferative response of NBI-5788-reactive TCL to antigen” value ([1]; patient MS-6, dose 10 mg, TCL 22) was 43,085 ± 1,376. The “proliferative response of NBI-5788-reactive TCL to antigen” value ([1]; patient MS-6, dose 10 mg, TCL 38) was 24,195 ± 613, the “proliferative response of NBI-5788-reactive TCL to antigen” value ([1]; patient MS-7, dose 5 mg, TCL 12) was 17,749 ± 1,784 and the “proliferative response of NBI-5788-reactive TCL to antigen” value ([1]; patient MS-7, dose 5 mg, TCL 28) was 3,505 ± 1,446. For the same substance, the “proliferative response of MBP-reactive TCL to antigen” value ([1]; patient MS-7, dose 5 mg, TCL 46) was 1,298 ± 113, the “proliferative response of MBP-reactive TCL to antigen” value ([1]; patient MS-8, Placebo, TCL 26) was 944 ± 259 and the “proliferative response of MBP-reactive TCL to antigen” value ([1]; patient MS-8, Placebo, TCL 28) was 1,437 ± 97. For the same substance, the “proliferative response of MBP-reactive TCL to antigen” value ([1]; patient MS-8, Placebo, TCL 38) was 16,931 ± 1938, the “proliferative response of MBP-reactive TCL to antigen” value ([1]; patient MS-8, Pretreat., TCL 22) was 2,636 ± 270 and the “proliferative response of MBP-reactive TCL to antigen” value ([1]; patient MS-8, Pretreat., TCL 31) was 936 ± 123. The “proliferative response of MBP-reactive TCL to antigen” value ([1]; patient MS-8, Pretreat., TCL 47) was 3,448 ± 1,980, the “thymidine incorporation of T cell line” value ([2]; Line 80 of patient) was 25,696 ± 408 cpm and the “thymidine incorporation of T cell line” value ([2]; Line 88 of patient) was 11,603 ± 424 cpm. For the same substance, the “thymidine incorporation of T cell line” value ([2]; Line 90 of patient) was 25,317 ± 8,221 cpm and the “thymidine incorporation of T cell line” value ([2]; Line 93 of patient) was 16,197 ± 2,095 cpm.

Source: patent publication US6379670B1, “Methods for treatment of multiple sclerosis using peptide analogs of human myelin basic protein” (Neurocrine Biosciences, Inc., priority 1994, dated 2002)
